This note sets out measurements from PMC4533973, “Synthesis and Evaluation of Chloramphenicol Homodimers: Molecular Target, Antimicrobial Activity, and Toxicity against Human Cells” (PLoS ONE, 2015).

Read-outs that look alike come from different tables or passages of the source.

Experiment [1] has as its system Jurkat cells. In words: Toxicity assays in Jurkat cells (cell counting, necrosis and apoptosis by flow cytometry). The experiment is classed as cell-based, Human. As for the experimental part: Fig 8 Toxicity assays in Jurkat cells. Jurkat cells were adjusted to 1×10^9 cells/L in RPMI-1640 medium containing 1% Penicillin/Streptomycin and 10% fetal bovine serum. The cells were grown in triplicate in the presence or absence of compound 5 at the indicated concentrations for 4 days at 37°C, under a humidified 5% CO2 atmosphere. CAM was used as a reference compound. For cell necrosis and apoptosis assays, samples (10^6 cells) were collected daily and determined by flow cytometry. Apoptotic and necrotic cells were expressed as a percentage of total cells.
Human leukemic cell lines, HS-Sultan (Burkitt’s lymphoma), Jurkat (T-cell acute lymphoblastic leukemia), and U937 (histiocytic lymphoma), were adjusted to 1×10^9 cells/l in RPMI-1640 medium supplemented with 10% fetal bovine serum and 1% penicillin/streptomycin. The cells were grown in triplicate in the absence (control cultures) or presence of CAM or CAM dimers for 4 days at 37°C, under a humidified 5% CO2 atmosphere. The medium was changed daily; CAM or CAM dimer addition was repeated after medium change. Aliquots were collected daily and counted in a CELL-DYN 3700 Hematology Analyzer. For cell necrosis and apoptosis assays, samples (10^6 cells) were collected and determined using the Annexin V-PE Apoptosis Detection Kit I (BD Pharmingen) for flow cytometry, according to the manufacturers’ instructions. Flow cytometry data were analyzed using the FlowJo flow cytometry analysis software. Necrotic and apoptotic cells were expressed as a percentage of total cells.
A general note: In flow cytometry, cells or beads pass a laser one at a time.

Experiment [2] relates to S. aureus (WT). The experiment is described as follows: Antibacterial activity (growth inhibition, EC50). The experiment is classed as cell-based. Conditions: Staphylococcus aureus. The method, boiled down:
(§1)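 LB, 37°C; inoculum from OD560 0.700 preculture; growth stopped when untreated control hit OD560 0.700. Readout: OD560 as % of 0.700. EC50 by nonlinear Hill (4PL) regression.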

Experiment [3] relates to MRSA (GRE2691). The experiment is described as follows: Antibacterial activity (growth inhibition, EC50). The experiment is classed as cell-based. Conditions: Staphylococcus aureus. The method, boiled down:
as §1

The subject of experiment [4] is E. faecium (GRE5152). In words: Antibacterial activity (growth inhibition, EC50). It is filed as cell-based. Conditions: Enterococcus faecium. A digest of the protocol: as §1
The subject of experiment [5] is post-translocation ribosomal complex (complex C) derived from E. coli. The experiment is described as follows: Inhibition of peptide-bond formation (puromycin reaction, AcPhe-puromycin synthesis). Conditions: for Ki: 25°C, buffer A; for k off: nonlinear regression of k eq. The experiment is classed as biochemical. As for the experimental part:
The inhibitory effect of CAM dimers on peptide-bond formation was studied using the puromycin reaction, a model reaction between puromycin and a post-translocation ribosomal complex (complex C) derived from E. coli. Since puromycin, a pseudo-substrate of PTase which binds to the A-site of the catalytic center, was present in excess, the reaction obeyed first-order kinetics. The first-order rate constant, k obs, at each concentration of puromycin was determined by fitting the x values into Eq 1, ln100/100−x=kobst (1) where x is the product AcPhe-puromycin, expressed as the percentage of complex C added in the reaction mixture, and t is the time of the reaction.
A representative time plot obtained at 400 μM puromycin, in the absence of inhibitor, is illustrated in Fig 3A (upper line) and, as expected, is characterized by linearity. However, when the reaction proceeded in the presence of a CAM dimer, e.g. compound 5, the time plots were characterized by two unique features that distinguish them from a typical kinetic behavior. […] Second, the slopes of both progress curves varied as a function of the inhibitor concentration (Fig 3A, four lower curves). […] These kinetic results are consistent with compound 5 operating through an induced fit mechanism (Fig 3C), in which the inhibitor first binds rapidly to complex C to form the encounter complex CI, which then undergoes a slow conformational change to produce a final, tighter complex C*I. Corroborative evidence for the consistency of this model is provided by the hyperbolic shape of the equilibration plots (k eq versus [I]), in which k eq represents the apparent rate constant for the attainment of equilibrium among C, CI, and C*I (Fig 3B). If one-step mechanism of inhibition was applicable (C + I ⇄ C*I), k eq should be a linear function of [I] [27]. […] Because the isomerization constant k on/k off was calculated to be 3.6, the inhibition process was finally associated with high overall inhibition of peptide-bond formation (Ki* = 0.3 μM; S1 Fig, panel C). In addition, the slow k off rate (0.64 min^-1) provided prolonged residence time for compound 5 at the ribosome, a behavior potentially predicting good efficacy in vivo [28].
The puromycin reaction, i.e. the reaction between complex C and excess puromycin (S), was carried out at 25°C in buffer A [100 mM Tris-HCl pH 7.2, 6 mM (CH3COO)2Mg, 100 mM NH4Cl and 6 mM 2-mercaptoethanol]. Under these conditions, the puromycin reaction obeys C + S ⇄KS CS→kcat C^′ + S pseudo-first-order kinetics and was analyzed as previously described.
In the presence of CAM dimers, biphasic semi-logarithmic time plots were obtained. The slope of the straight line through the origin was seen as the value of the apparent rate constant, k obs(early), at the early phase of the reaction. Similarly, the slope of the second straight line was taken as the apparent rate constant, k obs(late), at the late phase of the puromycin reaction.

Setting [6] is: LB medium, 37°C, OD560, read-out: EC50.
Where [7] appears, read: overall inhibition constant (CI + C*I).

As a reminder, the EC50 is the concentration needed to bring the measured effect to its halfway point. A word on the Ki: it is a measure of affinity in units of concentration, obtained from inhibition or displacement. On to `O=C(N[C@H](CO)[C@H](O)c1ccc([N+](=O)[O-])cc1)c1ccc(C(=O)N[C@H](CO)[C@H](O)c2ccc([N+](=O)[O-])cc2)cc1` [Compound 5, N^1,N^4-Bis ((1R,2R)-1,3-dihydroxy-1-(4-nitrophenyl)propan-2-yl)-terephthalamide], for which, in experiment [1] (60 μM, flow cytometry), the “apoptosis, expressed as a percentage of total cells” value amounted to 43%. Further, the necrosis entry in experiment [1] (60 μM, flow cytometry) is on record as “failed to induce necrosis”. Besides, in experiment [1] (daily cell counting, all tested concentrations), the “growth of Jurkat cells” value is “the rate of growth was reduced proportionally to the concentration”. For the same compound, the EC50 in experiment [2] (setting [6]) was 15.4 ± 1.9 µM; in experiment [3] (setting [6]) it was 24 ± 3.1 µM; in experiment [4] (TSB medium, 37°C, OD560, read-out: EC50), 40.9 ± 3.8 µM. The “apparent association rate constant, (k on + k off)/K i” value in experiment [5] is 3×10^4 M^1s^-1. Moreover, in experiment [5] (direct comparison is not accurate), the “fold more potent than homodimers of CAM previously synthesized by Berkov-Zrihen et al.” value is reported as ~ 10 fold. The Ki worked out at 1400 ± 120 nM in experiment [5] (encounter complex CI) and 300 ± 30 nM in experiment [5] (setting [7]). The k off in experiment [5] amounted to 0.63 ± 0.03 min⁻¹. Moreover, the “fold more potent than CAM” value in experiment [5] (ranking by K i*) is recorded as 3 fold.

`O=C(CCCCC(=O)N[C@H](CO)[C@H](O)c1ccc([N+](=O)[O-])cc1)N[C@H](CO)[C@H](O)c1ccc([N+](=O)[O-])cc1` [Compound 4, N^1,N^6-Bis((1R,2R)-1,3-dihydroxy-1-(4-nitrophenyl)propan-2-yl)adipamide]: the results for the EC50 in experiment [2], in experiment [3] and in experiment [4] were 28.3 ± 1.8 µM, 76.9 ± 8.6 µM and 99.8 ± 46.9 µM, respectively. The values for the Ki in experiment [5] (encounter complex CI) and in experiment [5] (setting [7]) were 6000 ± 540 nM and 1870 ± 150 nM, respectively. The compound further had a k off in experiment [5] of 1.00 ± 0.04 min⁻¹. For the same compound, the “activity compared to CAM” value in experiment [5] (ranking by K i*) is recorded as “lower”. Also, the “fold less efficient than compound 5” value in experiment [5] (ranking by K i*) was determined as 6 fold.
